{"source": "patent US20230257480A1", "about": "“ENHANCING BLOOD-BRAIN BARRIER DRUG TRANSPORT BY TARGETING ENDOGENOUS REGULATORS” (THE BOARD OF TRUSTEES OF THE LELAND STANFORD JUNIOR …, priority 2019, published 2023)", "tested_on": "aged brain endothelial cells", "test": "scRNA-seq of aged brain endothelial cells after pharmacologic ALPL inhibition", "assay_type": "in vivo, mice", "from_the_text": "FIG. 21A includes an image and histogram showing holo-transferrin uptake in ALPL+/− cortical vasculature (n=6, paired two-sided t-test). FIG. 21B is an MA plot of differentially expressed genes (FDR<0.05) from aged mice after administration of ALPL inhibitor and vehicle (7,036 capillary cells, n=4 mice pooled per group, MAST with Bonferroni correction). FIG. 21C includes violin plots showing transferrin receptor (Tfrc) expression across vessel segments, following the paradigm in FIG. 21B (1,171 arterial, 7,036 capillary, and 430 venous cells, MAST with Bonferroni correction).\nCell lysis, first-strand synthesis and cDNA synthesis was performed using the Smart-seq-2 protocol as described previouslyl39-141 in 384-well format, with some modifications. Briefly, brain endothelial cells (CD31+/CD45−) were sorted using SH800S (Sony) sorters on the highest purity setting (‘Single cell’). Plasma-647 fluorescence was recorded for each cell and corresponding sorted well. cDNA synthesis was performed using the Smart-seq2 protocol140-142. After cDNA amplification (23 cycles), concentrations were determined via the PicoGreen quantitation assay. Cells passing quality control were selected through custom scripts and cDNA concentrations normalized to ˜0.2 ng/μL using the TPPLabtech Mosquito HTS and Mantis (Formulatrix) robotic platforms. Libraries were prepared and pooled using the Nextera XT kits (Illumina), following the manufacturer's instructions. Libraries were then sequenced on the Nextseq or Novaseq (Illumina) using 2×75 bp paired-end reads and 2×8 bp index reads with a 200-cycle kit (Illumina, 20012861). Samples were sequenced at an average of 1.5M reads per cell. Raw sequencing files were demultiplexed with bcl2fastq, reads were aligned using STAR, and gene counts made using HTSEQ version 0.6.1p1. Downstream analysis was performed as previously described58, and plasma fluorescence of each cell correlated (Spearman) with gene expression and zonation59.\nMice were treated with six doses of ALPL inhibitor (613810, Millipore Sigma; 2,5-Dimethoxy-N-(quinolin-3-yl)benzenesulfonamide, Tissue-Nonspecific Alkaline Phosphatase Inhibitor, MLS-0038949; C17H16N2O4S; CAS #496014-13-2) or ‘Vehicle’ control over three days, injected intraperitoneally twice per day (8.75 mg/kg). ‘Vehicle’ treatments consisted of phosphate-buffered saline (PBS) with a matching concentration of DMSO (less than 4% v/v). After the sixth treatment, mice were injected intravenously with 150 μL of Atto 647N-labeled plasma (as above), human holo-transferrin (T4132, Millipore Sigma, 40 mg/kg), transferrin receptor antibody (BE0175, BioXcell, 20 mg/kg), or 3-kDa dextran-FITC (10 mg/kg, Thermo Fisher). Plasma, human holo-transferrin, and transferrin receptor antibody were infused 20 h before sacrifice, while 3-kDa dextran-FITC was given 2 h before sacrifice, as previously described143. After extensive perfusion, CNS cells were isolated as described above. Cell pellets were additionally incubated in Red Blood Cell Lysis Buffer (Millipore Sigma, R7757) for 2 minutes to ensure high CNS cell purity. Brain endothelial cells were distinguished by CD3 I+/CD45− staining and parenchymal cells by CD31−/CD45− staining. […]", "data": [{"smiles": "COc1ccc(OC)c(S(=O)(=O)Nc2cnc3ccccc3c2)c1", "note": "[ALPL inhibitor, 2,5-Dimethoxy-N-(quinolin-3-yl)benzenesulfonamide]", "values": [{"measurement": "TFRC expression on the aged BBB", "setting": "aged BBB, upon ALPL inhibition", "result": "strongly upregulated"}, {"measurement": "ferroportin expression on the aged BBB", "setting": "aged BBB, upon ALPL inhibition", "result": "strongly upregulated"}, {"measurement": "transferrin receptor expression increase in capillaries", "setting": "aged mice, capillary cells, after ALPL inhibition", "result": "~70", "unit": "%"}, {"measurement": "transferrin receptor expression increase in venous cells", "setting": "aged mice, venous cells, after ALPL inhibition", "result": "~89", "unit": "%"}, {"measurement": "pct, ALPL inh., Fcgrt", "setting": "receptor gene Fcgrt, ALPL inhibitor-treated group", "result": 0.849}, {"measurement": "% increase, Fcgrt", "setting": "receptor gene Fcgrt, aged BBB, ALPL inhibition vs control", "result": 24.2, "unit": "%"}, {"measurement": "pct, ALPL inh., Lpar6", "setting": "receptor gene Lpar6, ALPL inhibitor-treated group", "result": 0.446}, {"measurement": "% increase, Lpar6", "setting": "receptor gene Lpar6, aged BBB, ALPL inhibition vs control", "result": 37.0, "unit": "%"}, {"measurement": "pct, ALPL inh., Scarb1", "setting": "receptor gene Scarb1, ALPL inhibitor-treated group", "result": 0.45}, {"measurement": "% increase, Scarb1", "setting": "receptor gene Scarb1, aged BBB, ALPL inhibition vs control", "result": 11.1, "unit": "%"}, {"measurement": "pct, ALPL inh., Tfrc", "setting": "receptor gene Tfrc, ALPL inhibitor-treated group", "result": 0.723}, {"measurement": "% increase, Tfrc", "setting": "receptor gene Tfrc, aged BBB, ALPL inhibition vs control", "result": 70.1, "unit": "%"}, {"measurement": "pct, ALPL inh., Slc6a6", "setting": "transporter gene Slc6a6, ALPL inhibitor-treated group", "result": 0.99}, {"measurement": "% increase, Slc6a6", "setting": "transporter gene Slc6a6, aged BBB, ALPL inhibition vs control", "result": 24.9, "unit": "%"}, {"measurement": "pct, ALPL inh., Slc7a1", "setting": "transporter gene Slc7a1, ALPL inhibitor-treated group", "result": 0.72}, {"measurement": "% increase, Slc7a1", "setting": "transporter gene Slc7a1, aged BBB, ALPL inhibition vs control", "result": 12.2, "unit": "%"}, {"measurement": "pct, ALPL inh., Slc16a2", "setting": "transporter gene Slc16a2, ALPL inhibitor-treated group", "result": 0.66}, {"measurement": "% increase, Slc16a2", "setting": "transporter gene Slc16a2, aged BBB, ALPL inhibition vs control", "result": 16.5, "unit": "%"}, {"measurement": "pct, ALPL inh., Slc16a4", "setting": "transporter gene Slc16a4, ALPL inhibitor-treated group", "result": 0.42}, {"measurement": "% increase, Slc16a4", "setting": "transporter gene Slc16a4, aged BBB, ALPL inhibition vs control", "result": 18.8, "unit": "%"}, {"measurement": "pct, ALPL inh., Slc22a8", "setting": "transporter gene Slc22a8, ALPL inhibitor-treated group", "result": 0.71}, {"measurement": "% increase, Slc22a8", "setting": "transporter gene Slc22a8, aged BBB, ALPL inhibition vs control", "result": 11.0, "unit": "%"}, {"measurement": "pct, ALPL inh., Slc25a1", "setting": "transporter gene Slc25a1, ALPL inhibitor-treated group", "result": 0.24}, {"measurement": "% increase, Slc25a1", "setting": "transporter gene Slc25a1, aged BBB, ALPL inhibition vs control", "result": 10.7, "unit": "%"}, {"measurement": "pct, ALPL inh., Slc26a10", "setting": "transporter gene Slc26a10, ALPL inhibitor-treated group", "result": 0.19}, {"measurement": "% increase, Slc26a10", "setting": "transporter gene Slc26a10, aged BBB, ALPL inhibition vs control", "result": 17.8, "unit": "%"}, {"measurement": "pct, ALPL inh., Slc39a8", "setting": "transporter gene Slc39a8, ALPL inhibitor-treated group", "result": 0.34}, {"measurement": "% increase, Slc39a8", "setting": "transporter gene Slc39a8, aged BBB, ALPL inhibition vs control", "result": 10.9, "unit": "%"}, {"measurement": "pct, ALPL inh., Slc39a10", "setting": "transporter gene Slc39a10, ALPL inhibitor-treated group", "result": 0.89}, {"measurement": "% increase, Slc39a10", "setting": "transporter gene Slc39a10, aged BBB, ALPL inhibition vs control", "result": 12.1, "unit": "%"}, {"measurement": "% increase, Slc40a1", "setting": "transporter gene Slc40a1 (ferroportin), aged BBB, ALPL inhibition vs control", "result": 35.0, "unit": "%"}, {"measurement": "pct, ALPL inh., Slc40a1", "setting": "transporter gene Slc40a1, ALPL inhibitor-treated group", "result": 0.62}, {"measurement": "pct, ALPL inh., Slco1c1", "setting": "transporter gene Slco1c1, ALPL inhibitor-treated group", "result": 0.97}, {"measurement": "% increase, Slco1c1", "setting": "transporter gene Slco1c1, aged BBB, ALPL inhibition vs control", "result": 15.7, "unit": "%"}]}]}
